From paper PMC11791359, “A select inhibitor of MORC2 encapsulated by chimeric membranecoated DNA nanocage target alleviation TNBC progression” (Materials Today Bio, 2025) come the findings set out here.

One data set relates to TNBC cells. Briefly: Apoptosis by flow cytometry (Annexin V-FITC/PI). The format is cell-based, human. Particulars: TNBC cells, Angoline plus apoptosis inhibitor. How it is done:
The treated cells were digested with pancreatic enzymes and then were collected and washed with PBS. The cells were immobilized with pre-cooled 70% ethanol at 4 ℃ for 12-24 hours, and then centrifuged, washed, and suspended to ensure uniform cell dispersion. Propyridine iodide staining solution was added to each cell sample and incubated without light at 37 ℃ for 30 minutes. Subsequently, the labeled cells were subjected to cell cycle analysis using flow cytometer (Beckman Coulter, USA), and the results were processed by FlowJo software. For the apoptosis assay, 1 × 10^5 cells per sample were collected into 1.5 mL centrifuge tubes and were re-suspended with 195 μL Annexin V-FITC binding solution. Then, 5 μL Annexin V-FITC and 10 μL PI dyeing solution were added into every sample to re-suspend the cells and incubated at 20-25 °C for 20 minutes. Flow cytometry was used to detect red fluorescence at 638 nm and green fluorescence at 488 nm, and the apoptosis results were analysed by FlowJo software.
A general note: In flow cytometry, cells or beads pass a laser one at a time.

Data set [1] concerns TNBC-bearing BALB/c nude mice. The note with it: mouse, in vivo.
A further data set has as its system neutrophils. In words: Phagocytosis by neutrophils (fluorescence microscopy). Particulars: incubated 4 hours. In kind it is cell-based, human.
Data set [2] relates to TNBC-bearing BALB/c nude mice. In words: In vivo distribution and tumor uptake in TNBC-bearing mice. The note with it: tail vein injection, fluorescent in vivo imaging.
In another data set the test system is primary TNBC cells. In words: Uptake by primary TNBC cells (fluorescence microscopy). In kind it is cell-based, human. Particulars: incubated 6 hours.

Residues, ends and D or L forms follow the SMILES beside them. *: point of attachment. Cbz = O=C(OCc1ccccc1)*; CH2F = FC*

As to `COC(=O)C[C@H](NC(=O)[C@H](C)NC(=O)[C@@H](NC(=O)OCc1ccccc1)C(C)C)C(=O)CF` [Z-VAD-FMK, reference compound] (Cbz-Val-Ala-Asp(OMe)-CH2F), the “effect on the proapoptotic effect of Angoline” value in the data set on TNBC cells was “significantly reduce the proapoptotic effect of Angoline”.

Turning to Rhodamine, the “uptake in tumor tissue sections” value in data set [1] was “rarely taken up by tumor cells”. In the data set with neutrophils, the uptake by neutrophils entry is given as “neutrophils were entirely covered with red fluorescence”. The “distribution in tumor-bearing mice” value in data set [2] was “rapidly diffused throughout the nude mice and was quickly cleared”. The “uptake by primary TNBC cells” value in the data set on primary TNBC cells was “rarely taken up by TNBC cells”.
